Results on three molecules are retold here after ChEMBL document CHEMBL1146347, “Carinatumins A-C, new alkaloids from Lycopodium carinatum inhibiting acetylcholinesterase” (Bioorg Med Chem, 2007).

As usually defined, the pIC50 is −log10 of the IC50, conventionally taken in molar units. A lower pIC50 goes with a large IC50.

pIC50: −log10 of the molar value.

The test deals with T1, Acetylcholinesterase (Bos taurus, UniProt P23795).
T1 sequence (P23795 whole entry): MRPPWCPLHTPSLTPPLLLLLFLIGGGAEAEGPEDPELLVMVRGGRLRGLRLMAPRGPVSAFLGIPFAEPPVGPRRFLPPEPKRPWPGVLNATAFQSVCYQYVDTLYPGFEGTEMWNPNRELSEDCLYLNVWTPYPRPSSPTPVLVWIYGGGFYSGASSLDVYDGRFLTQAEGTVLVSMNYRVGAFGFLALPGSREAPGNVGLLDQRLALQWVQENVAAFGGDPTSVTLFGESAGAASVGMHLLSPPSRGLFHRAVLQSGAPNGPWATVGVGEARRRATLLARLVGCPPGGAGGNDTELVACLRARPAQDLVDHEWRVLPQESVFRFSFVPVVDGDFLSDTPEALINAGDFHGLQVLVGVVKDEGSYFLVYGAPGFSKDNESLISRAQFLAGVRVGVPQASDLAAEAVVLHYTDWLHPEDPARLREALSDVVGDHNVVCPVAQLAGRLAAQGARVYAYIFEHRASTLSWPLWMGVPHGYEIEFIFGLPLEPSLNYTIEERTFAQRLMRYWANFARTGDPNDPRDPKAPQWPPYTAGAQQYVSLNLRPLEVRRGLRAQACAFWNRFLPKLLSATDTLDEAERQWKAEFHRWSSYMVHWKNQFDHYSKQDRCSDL
In words: Inhibition of bovine erythrocyte acetylcholinesterase.

`CC1=C[C@H]2Cc3[nH]c(=O)ccc3[C@](N)(C1)/C2=C/CO` gave a negative-log IC50 (pIC50) of 5.34.

The molecule `C[C@H]1C[C@@H](CC2=[N+]([O-])CCCC2)[C@@H]2CCCN[C@H]2C1` showed a pIC50 below 4.00.

`CC1=C[C@H]2Cc3[nH]c(=O)ccc3[C@]3(C1)NCC[C@@H](O)[C@H]23` [CARINATUMINS B (2)] showed a pIC50 of 5.15.
